Reference: patent US20240270762A1, “PENICILLIN-BINDING PROTEIN INHIBITORS” (priority 2021, published 2024)
Values after ≈ are worked out from the molar mass of the structure shown. Where two headings read alike, the source gives them in different places.

Experiments:
A. baumannii CDC-0033 = experiment: microbe, parasite or virus in culture; format: cell-based; conditions: Acinetobacter baumannii, CDC0033, read-out: MIC, A. baumannii CDC-0033
N. gonorrhoeae WHO Z = experiment: Liquid broth MIC in Fastidious broth; conditions: Neisseria gonorrhoeae
P. aeruginosa ATCC 27853 = experiment: microbe, parasite or virus in culture; format: cell-based; conditions: Pseudomonas aeruginosa, ATCC27853, read-out: Minimum inhibitory concentration, P. aeruginosa ATCC 27853
[1] = molecular target: T1, PBP3 from Escherichia coli (K-12) (Escherichia coli, UniProt P0AD68); experiment: Bocillin-FL fluorescence polarization competition binding, E. coli PBP3
T1 construct: made in house
Procedure, shortened: (§1)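 Purified PBPs pre-incubated with inhibitor (E. coli PBP3 1.5 μM, 30 min; P. aeruginosa PBP3 0.75 μM, A. baumannii PBP1a 1 μM and PBP3 0.2 μM, 15 min), then Bocillin-FL 0.1 μM (0.05 μM for PBP1a) added; FP read up to 60 min. EC50 = concentration halving bound Bocillin-FL.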

N. gonorrhoeae MS11 = experiment: Liquid broth MIC in Fastidious broth; conditions: Neisseria gonorrhoeae
[2] = system: B. humptydooensis ATCC BAA-2767; experiment: microbe, parasite or virus in culture; format: cell-based; conditions: Burkholderia humptydooensis, ATCCBAA2767, read-out: Minimum inhibitory concentration (MIC), B. humptydooensis ATCC BAA-2767
P. aeruginosa CDC-0110 = experiment: microbe, parasite or virus in culture; format: cell-based; conditions: Pseudomonas aeruginosa, CDC0110, read-out: Minimum inhibitory concentration, P. aeruginosa CDC-0110
N. gonorrhoeae WHO K = experiment: Liquid broth MIC in Fastidious broth; conditions: Neisseria gonorrhoeae
A. baumannii ATCC 17978 = experiment: microbe, parasite or virus in culture; format: cell-based; conditions: Acinetobacter baumannii, ATCC17978, read-out: MIC, A. baumannii ATCC 17978
N. gonorrhoeae FA1090 = experiment: Liquid broth MIC in Fastidious broth; conditions: Neisseria gonorrhoeae
P. aeruginosa CDC-0095 = experiment: microbe, parasite or virus in culture; format: cell-based; conditions: Pseudomonas aeruginosa, CDC0095, read-out: Minimum inhibitory concentration, P. aeruginosa CDC-0095
N. gonorrhoeae WHO L = experiment: Liquid broth MIC in Fastidious broth; conditions: Neisseria gonorrhoeae
[3] = molecular target: T2, PBP3 from Pseudomonas aeruginosa (PAO1) (Pseudomonas aeruginosa, UniProt G3XD46); experiment: Bocillin-FL fluorescence polarization competition binding, P. aeruginosa PBP3; conditions: Binding affinity to P. aeruginosa PBP3; fluorescence polarization competition binding assay using Bocillin-FL; read-out: P. aeruginosa PBP3 Potency
T2 construct: made in house
Procedure, shortened: as §1

P. aeruginosa CDC-0054 = experiment: microbe, parasite or virus in culture; format: cell-based; conditions: Pseudomonas aeruginosa, CDC0054, read-out: Minimum inhibitory concentration, P. aeruginosa CDC-0054
A. baumannii CDC-0036 = experiment: microbe, parasite or virus in culture; format: cell-based; conditions: Acinetobacter baumannii, CDC0036, read-out: MIC, A. baumannii CDC-0036
[4] = read-out: Minimum Inhibitory Concentration, WHO Z
[5] = MS11, read-out: Minimum Inhibitory Concentration, MS11
[6] = read-out: Minimum Inhibitory Concentration, WHO K
[7] = FA1090, read-out: Minimum Inhibitory Concentration, FA 1090
[8] = read-out: Minimum Inhibitory Concentration, WHO L
[9] = read-out: Minimum Inhibitory Concentration (MIC), N. gonorrhoeae WHO Z
[10] = MS11, read-out: Minimum Inhibitory Concentration (MIC), N. gonorrhoeae MS11
[11] = read-out: Minimum Inhibitory Concentration (MIC), N. gonorrhoeae WHO K
[12] = FA1090, read-out: Minimum Inhibitory Concentration (MIC), N. gonorrhoeae FA 1090
[13] = read-out: Minimum Inhibitory Concentration (MIC), N. gonorrhoeae WHO L

T1 sequence (P0AD68 1-577): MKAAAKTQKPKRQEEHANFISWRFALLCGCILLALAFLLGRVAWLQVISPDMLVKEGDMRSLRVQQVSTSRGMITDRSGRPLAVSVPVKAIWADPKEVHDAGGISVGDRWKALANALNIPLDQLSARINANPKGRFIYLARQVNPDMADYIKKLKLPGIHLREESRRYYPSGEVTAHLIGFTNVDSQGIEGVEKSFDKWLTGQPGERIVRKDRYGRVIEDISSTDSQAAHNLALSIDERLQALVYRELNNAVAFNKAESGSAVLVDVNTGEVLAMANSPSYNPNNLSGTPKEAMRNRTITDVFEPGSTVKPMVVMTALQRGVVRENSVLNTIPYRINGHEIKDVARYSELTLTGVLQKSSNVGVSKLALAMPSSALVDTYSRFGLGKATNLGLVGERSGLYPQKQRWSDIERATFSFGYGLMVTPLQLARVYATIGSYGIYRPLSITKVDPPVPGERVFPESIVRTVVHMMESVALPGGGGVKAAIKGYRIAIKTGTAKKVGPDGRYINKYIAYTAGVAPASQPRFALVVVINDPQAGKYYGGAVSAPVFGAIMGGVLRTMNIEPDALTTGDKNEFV
T2 sequence (G3XD46 whole entry): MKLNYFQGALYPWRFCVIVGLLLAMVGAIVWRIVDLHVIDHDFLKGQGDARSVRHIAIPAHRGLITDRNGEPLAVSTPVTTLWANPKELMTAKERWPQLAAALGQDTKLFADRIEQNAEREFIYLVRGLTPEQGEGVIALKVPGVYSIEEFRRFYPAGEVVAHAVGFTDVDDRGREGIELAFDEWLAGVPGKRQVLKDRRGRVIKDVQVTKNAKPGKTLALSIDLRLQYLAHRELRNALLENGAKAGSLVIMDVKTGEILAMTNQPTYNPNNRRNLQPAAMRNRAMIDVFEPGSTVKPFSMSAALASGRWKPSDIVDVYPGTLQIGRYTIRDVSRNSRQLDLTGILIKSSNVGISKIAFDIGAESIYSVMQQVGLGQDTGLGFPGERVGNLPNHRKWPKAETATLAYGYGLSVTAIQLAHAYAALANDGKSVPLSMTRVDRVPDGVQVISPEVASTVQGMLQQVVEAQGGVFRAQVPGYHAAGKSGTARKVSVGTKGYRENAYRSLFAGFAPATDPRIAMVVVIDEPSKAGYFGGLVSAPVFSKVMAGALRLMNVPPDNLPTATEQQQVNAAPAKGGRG

Structure (SMILES)	MIC (A. baumannii CDC-0033) [µg/mL]	MIC (N. gonorrhoeae WHO Z; [4]) [µg/mL]	MIC (P. aeruginosa ATCC 27853) [µg/mL]	EC50 [1] [µM]	MIC (N. gonorrhoeae MS11; [5]) [µg/mL]	MIC [2] [µg/mL]	MIC (P. aeruginosa CDC-0110) [µg/mL]	MIC (N. gonorrhoeae WHO K; [6]) [µg/mL]	MIC (A. baumannii ATCC 17978) [µg/mL]	MIC (N. gonorrhoeae FA1090; [7]) [µg/mL]	MIC (P. aeruginosa CDC-0095) [µg/mL]	MIC (N. gonorrhoeae WHO L; [8]) [µg/mL]	IC50 [3] [µM]	MIC (P. aeruginosa CDC-0054) [µg/mL]	MIC (A. baumannii CDC-0036) [µg/mL]	MIC (N. gonorrhoeae WHO Z; [9]) [µg/mL]	MIC (N. gonorrhoeae MS11; [10]) [µg/mL]	MIC (N. gonorrhoeae WHO K; [11]) [µg/mL]	MIC (N. gonorrhoeae FA1090; [12]) [µg/mL]	MIC (N. gonorrhoeae WHO L; [13]) [µg/mL]
O=C(NCCS(=O)(=O)N1CCN(C(=O)NC(C(=O)N[C@H]2Cc3ccc(F)c(C(=O)O)c3OB2O)c2cc(F)c(O)c(O)c2Cl)C1=O)c1cccnc1 (stereo partly drawn) [Example 262, (3R)-3-(2-(2-chloro-5-fluoro-3,4-dihydroxyphenyl)-2-(3-((2-(nicotinamido)ethyl)sulfonyl)-2-oxoimidazolidine-1-carboxamido)acetamido)-7-fluoro-2-hydroxy-3,4-dihydro-2H-benzo[e][1,2]oxaborinine-8-carboxylic acid]	2 to 4 (≈ 2.61 to 5.22 µM)	16 to 32 (≈ 20.9 to 41.7 µM)	< 1	< 10	16 to 32 (≈ 20.9 to 41.7 µM)	< 1	< 1	> 64	< 1	4 to 8 (≈ 5.22 to 10.4 µM)	2 to 4 (≈ 2.61 to 5.22 µM)	> 64	< 10	2 to 4 (≈ 2.61 to 5.22 µM)	< 1					
CN(CCN1CCN(C(=O)N[C@@H](C(=O)N[C@H]2Cc3ccc(F)c(C(=O)O)c3OB2O)c2cc(F)c(O)c(O)c2Cl)C(=O)C1=O)Cc1cccc(C(N)=O)c1 [Example 225, (R)-3-((R)-2-(4-(2-((3-carbamoylbenzyl)(methyl)amino)ethyl)-2,3-dioxopiperazine-1-carboxamido)-2-(2-chloro-5-fluoro-3,4-dihydroxyphenyl)acetamido)-7-fluoro-2-hydroxy-3,4-dihydro-2H-benzo[e][1,2]oxaborinine-8-carboxylic acid]	2 to 4 (≈ 2.59 to 5.18 µM)		2 to 4 (≈ 2.59 to 5.18 µM)	10 to 50		< 1	< 1		< 1		2 to 4 (≈ 2.59 to 5.18 µM)		< 10	2 to 4 (≈ 2.59 to 5.18 µM)	2 to 4 (≈ 2.59 to 5.18 µM)	16 to 32 (≈ 20.7 to 41.4 µM)	16 to 32 (≈ 20.7 to 41.4 µM)	> 64	1 to 2 (≈ 1.29 to 2.59 µM)	> 64
O=C(CN1CCN(C(=O)NC(C(=O)N[C@H]2Cc3ccc(F)c(C(=O)O)c3OB2O)c2cc(F)c(O)c(O)c2Cl)C(=O)C1=O)NCc1cccc(O)c1 (stereo partly drawn) [Example 237, (3R)-3-(2-(2-chloro-5-fluoro-3,4-dihydroxyphenyl)-2-(4-(2-((3-hydroxybenzyl)amino)-2-oxoethyl)-2,3-dioxopiperazine-1-carboxamido)acetamido)-7-fluoro-2-hydroxy-3,4-dihydro-2H-benzo[e][1,2]oxaborinine-8-carboxylic acid]	8 to 16 (≈ 10.7 to 21.5 µM)		2 to 4 (≈ 2.68 to 5.36 µM)	< 10		2 to 4 (≈ 2.68 to 5.36 µM)	< 1		< 1		2 to 4 (≈ 2.68 to 5.36 µM)		< 10	8 to 16 (≈ 10.7 to 21.5 µM)	8 to 16 (≈ 10.7 to 21.5 µM)	16 to 32 (≈ 21.5 to 42.9 µM)	16 to 32 (≈ 21.5 to 42.9 µM)	> 64	1 to 2 (≈ 1.34 to 2.68 µM)	> 64
O=C(NCCN1CCN(C(=O)NC(C(=O)N[C@H]2Cc3ccc(F)c(C(=O)O)c3OB2O)c2cc(F)c(O)c(O)c2Cl)C1=O)Nc1cccnc1 (stereo partly drawn) [Example 251, (3R)-3-(2-(2-chloro-5-fluoro-3,4-dihydroxyphenyl)-2-(2-oxo-3-(2-(3-(pyridin-3-yl)ureido)ethyl)imidazolidine-1-carboxamido)acetamido)-7-fluoro-2-hydroxy-3,4-dihydro-2H-benzo[e][1,2]oxaborinine-8-carboxylic acid]	2 to 4 (≈ 2.79 to 5.57 µM)	16 to 32 (≈ 22.3 to 44.6 µM)	< 1	< 10	16 to 32 (≈ 22.3 to 44.6 µM)	< 1	< 1	> 64	< 1	4 to 8 (≈ 5.57 to 11.1 µM)	8 to 16 (≈ 11.1 to 22.3 µM)	> 64	< 10	8 to 16 (≈ 11.1 to 22.3 µM)	2 to 4 (≈ 2.79 to 5.57 µM)					
CN(CCN1CCN(C(=O)NC(C(=O)N[C@H]2Cc3ccc(F)c(C(=O)O)c3OB2O)c2cc(F)c(O)c(O)c2Cl)C(=O)C1=O)S(=O)(=O)c1ccc(C(N)=O)cc1 (stereo partly drawn) [Example 223, (3R)-3-(2-(4-(2-((4-carbamoyl-N-methylphenyl)sulfonamido)ethyl)-2,3-dioxopiperazine-1-carboxamido)-2-(2-chloro-5-fluoro-3,4-dihydroxyphenyl)acetamido)-7-fluoro-2-hydroxy-3,4-dihydro-2H-benzo[e][1,2]oxaborinine-8-carboxylic acid]	8 to 16 (≈ 9.72 to 19.4 µM)		2 to 4 (≈ 2.43 to 4.86 µM)	< 10		< 1	< 1		< 1		2 to 4 (≈ 2.43 to 4.86 µM)		< 10	2 to 4 (≈ 2.43 to 4.86 µM)	8 to 16 (≈ 9.72 to 19.4 µM)	16 to 32 (≈ 19.4 to 38.9 µM)	16 to 32 (≈ 19.4 to 38.9 µM)	> 64	4 to 8 (≈ 4.86 to 9.72 µM)	> 64
O=C(CN1CCN(C(=O)NC(C(=O)N[C@H]2Cc3ccc(F)c(C(=O)O)c3OB2O)c2cc(F)c(O)c(O)c2Cl)C(=O)C1=O)Nc1cccc(O)c1 (stereo partly drawn) [Example 231, (3R)-3-(2-(2-chloro-5-fluoro-3,4-dihydroxyphenyl)-2-(4-(2-((3-hydroxyphenyl)amino)-2-oxoethyl)-2,3-dioxopiperazine-1-carboxamido)acetamido)-7-fluoro-2-hydroxy-3,4-dihydro-2H-benzo[e][1,2]oxaborinine-8-carboxylic acid]	8 to 16 (≈ 10.9 to 21.9 µM)		< 1	< 10		8 to 16 (≈ 10.9 to 21.9 µM)	< 1		< 1		2 to 4 (≈ 2.73 to 5.47 µM)		< 10	2 to 4 (≈ 2.73 to 5.47 µM)	2 to 4 (≈ 2.73 to 5.47 µM)	16 to 32 (≈ 21.9 to 43.7 µM)	16 to 32 (≈ 21.9 to 43.7 µM)	16 to 32 (≈ 21.9 to 43.7 µM)	1 to 2 (≈ 1.37 to 2.73 µM)	> 64
O=C(NCCCS(=O)(=O)N1CCN(C(=O)NC(C(=O)N[C@H]2Cc3ccc(F)c(C(=O)O)c3OB2O)c2cc(F)c(O)c(O)c2Cl)C1=O)c1ccccc1 (stereo partly drawn) [Example 268, (3R)-3-(2-(3-((3-benzamidopropyl)sulfonyl)-2-oxoimidazolidine-1-carboxamido)-2-(2-chloro-5-fluoro-3,4-dihydroxyphenyl)acetamido)-7-fluoro-2-hydroxy-3,4-dihydro-2H-benzo[e][1,2]oxaborinine-8-carboxylic acid]	8 to 16 (≈ 10.3 to 20.5 µM)	16 to 32 (≈ 20.5 to 41 µM)	8 to 16 (≈ 10.3 to 20.5 µM)	< 10	16 to 32 (≈ 20.5 to 41 µM)	> 128	8 to 16 (≈ 10.3 to 20.5 µM)	> 64	< 1	4 to 8 (≈ 5.13 to 10.3 µM)	32 to 64 (≈ 41 to 82.1 µM)	> 64	< 10	8 to 16 (≈ 10.3 to 20.5 µM)	2 to 4 (≈ 2.56 to 5.13 µM)					
O=C(NCCCN1CCN(C(=O)NC(C(=O)N[C@H]2Cc3ccc(F)c(C(=O)O)c3OB2O)c2cc(F)c(O)c(O)c2Cl)C(=O)C1=O)c1ccc(O)cc1 (stereo partly drawn) [Example 203, (3R)-3-(2-(2-chloro-5-fluoro-3,4-dihydroxyphenyl)-2-(4-(3-(4-hydroxybenzamido)propyl)-2,3-dioxopiperazine-1-carboxamido)acetamido)-7-fluoro-2-hydroxy-3,4-dihydro-2H-benzo[e][1,2]oxaborinine-8-carboxylic acid]	2 to 4 (≈ 2.63 to 5.26 µM)		< 1	< 10		< 1	< 1		< 1		2 to 4 (≈ 2.63 to 5.26 µM)		< 10	< 1	< 1	16 to 32 (≈ 21.1 to 42.1 µM)	4 to 8 (≈ 5.26 to 10.5 µM)	> 64	< 1	16 to 32 (≈ 21.1 to 42.1 µM)
